Source: ChEMBL document CHEMBL6103578, “Design and synthesis three novel series of derivatives using natural acetylcholinesterase inhibitor-RLMS as template and in vitro, in vivo and in silico activities verification” (Eur J Med Chem, 2025)
The source made the active and inactive calls. No cut-off for these calls is given here.

Key:
[1] = biological target: T1, Acetylcholinesterase (Homo sapiens, UniProt P22303); experiment: Inhibition of AChE (unknown origin) using ATCI as substrate preincubated for 20 mins followed by substrate addition measured after 30 mins by DTNB assay
T1 sequence (P22303 whole entry): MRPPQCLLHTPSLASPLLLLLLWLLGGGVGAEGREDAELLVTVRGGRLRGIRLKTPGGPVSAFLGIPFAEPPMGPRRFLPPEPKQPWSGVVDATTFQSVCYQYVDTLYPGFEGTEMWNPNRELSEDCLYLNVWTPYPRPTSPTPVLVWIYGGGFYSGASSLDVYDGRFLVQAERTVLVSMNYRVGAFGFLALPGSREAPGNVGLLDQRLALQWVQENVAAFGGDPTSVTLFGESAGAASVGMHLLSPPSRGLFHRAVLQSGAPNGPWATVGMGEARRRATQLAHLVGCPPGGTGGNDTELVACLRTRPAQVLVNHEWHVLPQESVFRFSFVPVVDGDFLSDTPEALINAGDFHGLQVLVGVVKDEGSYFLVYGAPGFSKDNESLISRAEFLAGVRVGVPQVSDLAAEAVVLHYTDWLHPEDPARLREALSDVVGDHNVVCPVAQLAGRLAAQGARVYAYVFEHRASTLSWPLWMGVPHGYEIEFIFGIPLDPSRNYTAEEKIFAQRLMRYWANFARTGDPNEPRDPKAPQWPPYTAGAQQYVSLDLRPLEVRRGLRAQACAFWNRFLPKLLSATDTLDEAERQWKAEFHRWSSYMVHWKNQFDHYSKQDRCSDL

[2] = biological target: T1, Acetylcholinesterase; experiment: Mixed competitive inhibition of AChE (unknown origin) at 2 to 8 uM by DTNB assay; conditions: dose 2-8 µM
[3] = biological target: T1, Acetylcholinesterase; experiment: Binding affinity to AChE (unknown origin) assessed as dissociation constant by MST assay
[4] = test system: SH-SY5Y; experiment: Neuroprotective effect against H2O2-induced cell injury in human SH-SY5Y cells assessed as cell survival at 25 to 100 uM preincubated for 1 hr followed by H2O2 addition measured after 2 hrs by MTT assay (reference value: 57.76 %); assay type: functional; conditions: dose 25-100 µM, time 3 hrs
[5] = test system: SH-SY5Y; experiment: Neuroprotective effect against H2O2-induced cell injury in human SH-SY5Y cells assessed as cell survival at 25 uM preincubated for 1 hr followed by H2O2 addition measured after 2 hrs by MTT assay (reference value: 57.76 %); assay type: functional; conditions: time 3 hrs, read-out: Activity
[6] = Toxicity in zebrafish assessed as change in heart rate at 1 to 100 uM measured 96 hrs post-fertilization; design: species or system Danio rerio; conditions: in vivo, dose 1-100 µM
[7] = Toxicity in zebrafish assessed as deformaties in animal at 100 uM measured 96 hrs post-fertilization; design: species or system Danio rerio; conditions: in vivo
[8] = Toxicity in zebrafish assessed as decrease in survival rate at 100 uM measured 96 hrs post-fertilization; design: species or system Danio rerio; conditions: in vivo
[9] = Toxicity in zebrafish assessed as malformation in animal at 100 uM measured 96 hrs post-fertilization; design: species or system Danio rerio; conditions: in vivo
[10] = species: Danio rerio; experiment: Anti-alzheimer activity in AlCl3-treated zebrafish assessed as increase in movement distance at 25 to 75 uM treated for 72 hrs with medium replacement containing compound daily by light/dark cycle behavioral test; assay type: functional, organism-based; conditions: dose 25-75 µM
[11] = species: Danio rerio; experiment: Anti-alzheimer activity in AlCl3-treated zebrafish assessed as increase in movement speed at 25 to 75 uM treated for 72 hrs with medium replacement containing compound daily by light/dark cycle behavioral test; assay type: functional, organism-based; conditions: dose 25-75 µM
[12] = species: Danio rerio; experiment: Anti-alzheimer activity in AlCl3-treated zebrafish assessed as inhibition of apoptosis in brain treated for 72 hrs with medium replacement containing compound daily by AO staining based analysis; assay type: functional, organism-based; conditions: dose 25-75 µM

In the case of C[C@@H]1CC[C@]2(C(=O)NCc3ccccc3Cl)CC[C@]3(C)C(=CC[C@@H]4[C@@]5(C)C[C@@H](O)[C@H](O)[C@@](C)(CO)[C@@H]5CC[C@]43C)[C@@H]2[C@]1(C)O, the IC50 [1] is reported as 3.7 µM, the inhibition [2] is reported as “Active” and the Kd [3] is reported as 5.37 µM. For the same molecule, the Activity [4] was over 57.76%, the viability at 25 µM [5] was 80% and the Activity [6] was “Non-toxic”. For the same molecule, the Activity [7] was “Toxic”, the Activity [8] was “Toxic” and the Activity [9] was “Toxic”. For the same molecule, the Activity [10] was “Active”, the Activity [11] was “Active” and the Activity [12] was “Dose-dependent-effect”.
